Assay results published in PubChem BioAssay AID256 (DTP/NCI, 2004).
“And” between values parts separate entries of the source, which are not always exact repeats. Equal entries are not always repeated. Toxic doses and inconclusive results are not listed.

Test system: CD2F1 mice, L1210 leukemia ip, survival T/C
Assay: NCI In Vivo Anticancer Drug Screen. Data for tumor model L1210 Leukemia (intraperitoneal) in CD2F1 (CDF1) mice
Settings: endpoint: median survival time, higher = longer survival
Outline: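 Each value reflects a quotient of treated over vehicle control outcomes in mice with a transplanted tumor.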

SMILES: COc1cc([C@@H]2c3cc4c(cc3[C@@H](OC3OC5COC(C)OC5C(O)C3O)[C@H]3COC(=O)[C@H]23)OCO4)cc(OC)c1O (stereo partly drawn)
- T/C (dose: 16.0 mg/kg/injection, schedule: Q04DX003 (ip), vehicle: other): 212 % of control
- T/C (dose: 16.0 mg/kg/injection, schedule: Q08DX002 (ip), vehicle: other): 200 % of control
- T/C (dose: 32.0 mg/kg/injection, schedule: Q01DX001 (ip), vehicle: other): 162 % of control
- T/C (dose: 32.0 mg/kg/injection, schedule: Q01DX001 (oral), vehicle: Klucel (hydroxypropylcellulose) (HPC)): 105 % of control
- T/C (dose: 32.0 mg/kg/injection, schedule: Q01DX001 (sc), vehicle: other): 150 % of control
- T/C (dose: 32.0 mg/kg/injection, schedule: Q01DX009 (ip), vehicle: other): 87 % of control
- T/C (dose: 32.0 mg/kg/injection, schedule: Q01DX009 (ip), vehicle: saline): 110 % of control
- T/C (dose: 32.0 mg/kg/injection, schedule: Q01DX009 (oral), vehicle: Klucel (hydroxypropylcellulose) (HPC)): 122 % of control
- T/C (dose: 32.0 mg/kg/injection, schedule: Q01DX009 (sc), vehicle: other): 87 % of control
- T/C (dose: 32.0 mg/kg/injection, schedule: Q03HX008 (oral), vehicle: Klucel (hydroxypropylcellulose) (HPC)): 122 % of control
- T/C (dose: 32.0 mg/kg/injection, schedule: Q03HX016 (oral), vehicle: Klucel (hydroxypropylcellulose) (HPC)): 116 % of control
- T/C (dose: 32.0 mg/kg/injection, schedule: Q04DX003 (ip), vehicle: other): 206 % of control
- T/C (dose: 32.0 mg/kg/injection, schedule: Q04DX003 (oral), vehicle: Klucel (hydroxypropylcellulose) (HPC)): 105 % of control
- T/C (dose: 32.0 mg/kg/injection, schedule: Q08DX002 (ip), vehicle: other): 200 % of control
- T/C (dose: 32.0 mg/kg/injection, schedule: Q08DX002 (oral), vehicle: Klucel (hydroxypropylcellulose) (HPC)): 111 % of control
- T/C (dose: 64.0 mg/kg/injection, schedule: Q01DX001 (ip), vehicle: other): 218 % of control
- T/C (dose: 64.0 mg/kg/injection, schedule: Q01DX001 (oral), vehicle: Klucel (hydroxypropylcellulose) (HPC)): 111 % of control
- T/C (dose: 64.0 mg/kg/injection, schedule: Q01DX001 (sc), vehicle: other): 187 % of control
- T/C (dose: 64.0 mg/kg/injection, schedule: Q01DX009 (ip), vehicle: saline): 102 % of control
- T/C (dose: 64.0 mg/kg/injection, schedule: Q01DX009 (oral), vehicle: other): 162 % of control
- T/C (dose: 64.0 mg/kg/injection, schedule: Q03HX008 (oral), vehicle: Klucel (hydroxypropylcellulose) (HPC)): 116 % of control
- T/C (dose: 64.0 mg/kg/injection, schedule: Q03HX024 (oral), vehicle: Klucel (hydroxypropylcellulose) (HPC)): 94 % of control
- T/C (dose: 64.0 mg/kg/injection, schedule: Q04DX003 (ip), vehicle: other): 156 % of control
- T/C (dose: 64.0 mg/kg/injection, schedule: Q04DX003 (oral), vehicle: Klucel (hydroxypropylcellulose) (HPC)): 122 % of control
- T/C (dose: 64.0 mg/kg/injection, schedule: Q08DX002 (ip), vehicle: other): 212 % of control
- T/C (dose: 64.0 mg/kg/injection, schedule: Q08DX002 (oral), vehicle: Klucel (hydroxypropylcellulose) (HPC)): 111 % of control
- T/C (dose: 128.0 mg/kg/injection, schedule: Q01DX001 (ip), vehicle: other): 112 % of control
- T/C (dose: 128.0 mg/kg/injection, schedule: Q01DX001 (oral), vehicle: Klucel (hydroxypropylcellulose) (HPC)): 111 % of control
- T/C (dose: 128.0 mg/kg/injection, schedule: Q01DX001 (sc), vehicle: other): 87 % of control
- T/C (dose: 128.0 mg/kg/injection, schedule: Q03HX008 (oral), vehicle: Klucel (hydroxypropylcellulose) (HPC)): 122 % of control
- T/C (dose: 128.0 mg/kg/injection, schedule: Q03HX016 (oral), vehicle: Klucel (hydroxypropylcellulose) (HPC)): 150 % of control
- T/C (dose: 128.0 mg/kg/injection, schedule: Q04DX003 (ip), vehicle: other): 118 % of control
- T/C (dose: 128.0 mg/kg/injection, schedule: Q04DX003 (oral), vehicle: Klucel (hydroxypropylcellulose) (HPC)): 116 % of control
- T/C (dose: 128.0 mg/kg/injection, schedule: Q08DX002 (ip), vehicle: other): 175 % of control
- T/C (dose: 128.0 mg/kg/injection, schedule: Q08DX002 (oral), vehicle: Klucel (hydroxypropylcellulose) (HPC)): 111 % of control
- T/C (dose: 256.0 mg/kg/injection, schedule: Q01DX001 (oral), vehicle: Klucel (hydroxypropylcellulose) (HPC)): 122 % of control
- T/C (dose: 256.0 mg/kg/injection, schedule: Q01DX001 (oral), vehicle: other): 118 % of control and 112 % of control
- T/C (dose: 256.0 mg/kg/injection, schedule: Q01DX001 (sc), vehicle: other): 87 % of control
- T/C (dose: 256.0 mg/kg/injection, schedule: Q04DX003 (oral), vehicle: Klucel (hydroxypropylcellulose) (HPC)): 122 % of control
- T/C (dose: 256.0 mg/kg/injection, schedule: Q08DX002 (oral), vehicle: Klucel (hydroxypropylcellulose) (HPC)): 111 % of control
- T/C (dose: 512.0 mg/kg/injection, schedule: Q01DX001 (oral), vehicle: Klucel (hydroxypropylcellulose) (HPC)): 122 % of control
- T/C (dose: 512.0 mg/kg/injection, schedule: Q01DX001 (oral), vehicle: other): 150 % of control
- T/C (dose: 512.0 mg/kg/injection, schedule: Q01DX009 (oral), vehicle: other): 100 % of control and 112 % of control
- T/C (dose: 512.0 mg/kg/injection, schedule: Q08DX002 (oral), vehicle: Klucel (hydroxypropylcellulose) (HPC)): 105 % of control
- T/C (dose: 1024.0 mg/kg/injection, schedule: Q01DX001 (oral), vehicle: Klucel (hydroxypropylcellulose) (HPC)): 122 % of control
- T/C (dose: 1024.0 mg/kg/injection, schedule: Q01DX001 (oral), vehicle: other): 150 % of control
- T/C (dose: 1024.0 mg/kg/injection, schedule: Q01DX009 (oral), vehicle: other): 87 % of control and 100 % of control
- T/C (dose: 1024.0 mg/kg/injection, schedule: Q08DX002 (oral), vehicle: Klucel (hydroxypropylcellulose) (HPC)): 111 % of control
